According to article PMC6173502 (2018):

What was measured:
Experiment in all cases: ITC
[1] = tested on: KRAS 6-4-4 (DNA, G4) GGGCAATATGGGAAAAGGGAAAAGGGAAAA; conditions: K+ 150 mM (KCl); 20 mM Tris, 1 mM EDTA, 30% DMSO, pH 7.2, 25 °C; mode 1 of 3
[2] = tested on: KRAS 6-4-6 (DNA, G4) GGGCAATATGGGAAAAGGGAAAAAAGGGAA; conditions: K+ 150 mM (KCl); 20 mM Tris, 1 mM EDTA, 30% DMSO, pH 7.2, 25 °C; mode 1 of 3
[3] = tested on: hTel22 (DNA, G4) AGGGTTAGGGTTAGGGTTAGGG; conditions: 20 mM Tris, 1 mM EDTA, 30% DMSO, pH 7.2, 25 °C, mode 1 of 3
[4] = tested on: BCL2 3-5-3 (DNA, G4) CGGGCACGGGAAAAAGGGAACGGGAAC; conditions: K+ 150 mM (KCl); 20 mM Tris, 1 mM EDTA, 30% DMSO, pH 7.2, 25 °C; mode 1 of 3
[5] = tested on: BCL2 3-6-2 (DNA, G4) CGGGCACGGGAAAAAAGGGACGGGAAC; conditions: K+ 150 mM (KCl); 20 mM Tris, 1 mM EDTA, 30% DMSO, pH 7.2, 25 °C; mode 1 of 3

- Ka [1]: 25.5 × 10^7
- Ka [2]: 3.85 × 10^7
- Ka ([3]; K+ 150 mM (KCl)): 13.7 × 10^7
- Ka ([3]; Na+ 150 mM (NaCl)): 18.2 × 10^7
- Ka [4]: 17.5 × 10^7
- Ka [5]: 41.5 × 10^7
Structure (SMILES): N=C(N)c1ccc(N=NNc2ccc(C(=N)N)cc2)cc1
